By IC50 is commonly meant the point on the concentration scale where inhibition reaches its midpoint.

Counter-ions that a name gives are not always drawn. Bounds are passed on as bounds.

The results in this text go back to ChEMBL document CHEMBL1268853, “Characterization of Acetylcholinesterase Inhibitory Constituents from Annona glabra Assisted by HPLC Microfractionation” (J Nat Prod, 2010).

This test concerns the target Acetylcholinesterase (Electrophorus electricus, UniProt O42275). Description: Inhibition of electric eel AChE by Ellman's method. (Ellman's reagent forms a yellow product with free thiols.)

Chain of Acetylcholinesterase (O42275 whole entry): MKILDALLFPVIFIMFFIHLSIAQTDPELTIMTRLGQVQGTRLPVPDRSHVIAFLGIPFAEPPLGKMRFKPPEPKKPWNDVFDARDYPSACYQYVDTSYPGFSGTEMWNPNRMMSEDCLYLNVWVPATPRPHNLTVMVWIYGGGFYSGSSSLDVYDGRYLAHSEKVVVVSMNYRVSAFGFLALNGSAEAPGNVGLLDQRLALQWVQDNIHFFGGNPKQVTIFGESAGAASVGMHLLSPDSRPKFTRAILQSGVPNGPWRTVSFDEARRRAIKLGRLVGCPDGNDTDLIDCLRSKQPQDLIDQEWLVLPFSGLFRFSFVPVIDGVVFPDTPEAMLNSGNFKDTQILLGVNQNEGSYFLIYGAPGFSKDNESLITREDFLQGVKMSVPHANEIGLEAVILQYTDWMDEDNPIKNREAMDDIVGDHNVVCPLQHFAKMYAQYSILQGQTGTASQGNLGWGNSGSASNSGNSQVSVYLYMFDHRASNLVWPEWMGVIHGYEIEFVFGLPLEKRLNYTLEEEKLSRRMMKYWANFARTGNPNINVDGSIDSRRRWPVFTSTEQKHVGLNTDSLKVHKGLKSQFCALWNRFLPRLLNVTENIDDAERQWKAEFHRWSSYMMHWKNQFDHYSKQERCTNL

In turn, `COc1cccc2c1C(=O)c1c(C)cc(=O)[nH]c1C2=O` yielded a half-maximal inhibitory concentration (IC50) of 23.4 µM.
Regarding `COc1cc2c(cc1O)C=[N+](C)CC2`, it took 16 µM to reach half-maximal inhibition (IC50).
`COc1ccc(C[C@H]2c3cc(O)c(OC)cc3CCN2C)cc1O` had a half-maximal inhibitory concentration (IC50) of 72.2 µM.
`COc1cc2c(cc1O)C[N@+]1(C)CCc3cc(OC)c(OC)cc3[C@@H]1C2` yielded an IC50 of 8.4 µM.
As to `COc1cc2c3c(c1O)-c1c(ccc(OC)c1OC)C[C@@H]3[N+](C)(C)CC2`, the IC50 was greater than 140 µM.
In the case of `COc1c(O)cc2c3c1-c1ccccc1C[C@H]3NCC2` it was 123 µM; in that of `COc1cc2c(cc1O)C[C@H]1NCCc3cc4c(c-2c31)OCO4`, greater than 117 µM.
In the case of `O[C@@H]1c2ccccc2-c2c3c(cc4c2[C@H]1NCC4)OCO3` it was greater than 126 µM; in that of `COc1c(O)c2c3c(c1OC)-c1cc4c(cc1C[C@@H]3NCC2)OCO4`, 76.9 µM; in that of `COc1c(O)c2c3c(c1OC)-c1ccccc1C[C@H]3NCC2`, 110 µM.
`COc1cc2c(cc1O)C=[N+]1CCc3cc(OC)c(OC)cc3[C@@H]1C2` came in with a concentration for half-maximal inhibition (IC50) of 154 µM.
`COc1cc2c(cc1OC)[C@@H]1Cc3ccc(O)c(OC)c3C=[N+]1CC2` gave an IC50 of 30.8 µM.
In the case of `COc1cc2ccnc3c2c(c1OC)-c1cc2c(cc1C3=O)OCO2`, the IC50 was greater than 150 µM.
Take `COc1cc2c(cc1OC)-c1cc3ccc(O)c(OC)c3c[n+]1CC2` [DEHYDROCORYDALMINE TRIFLUOROACETATE]: the midpoint of inhibition, the IC50, lay at 96.5 µM.
`COc1cc2c[n+]3c(cc2cc1O)-c1cc(OC)c(OC)cc1CC3` [DEHYDROCORYTENCHINE TRIFLUOROACETATE] had an IC50 of 97.6 µM.
In turn, `O=C1c2ccccc2-c2c3c(cc4ccnc1c24)OCO3` [LIRIODENINE] showed an IC50 greater than 150 µM.
In the case of `COc1cc2ccnc3c2c(c1OC)-c1ccccc1C3=O` [LYSICAMINE] it was 16.1 µM; in that of `COc1cc2c(cc1O)-c1cc3cc(OC)c(OC)cc3c[n+]1CC2` [PSEUDOCOLUMBAMINE TRIFLUOROACETATE], 5 µM; in that of `COc1cc2c(cc1OC)-c1cc3cc(OC)c(OC)cc3c[n+]1CC2` [PSEUDOPALMATINE TRIFLUOROACETATE], 1.8 µM.
